These results are taken from ChEMBL document CHEMBL1821652, “QSAR models for predicting enzymatic hydrolysis of new chemical entities in 'soft-drug' design” (Bioorg Med Chem, 2009).

Residues, ends and D or L forms follow the SMILES beside them.

For the first data set, the system named is Plasma. The data set is described as follows: (§1) Half life in human plasma. In kind it is ADME, cell-free.
Take `COC(=O)[C@H](Cc1ccc(OC(C)=O)c(OC(C)=O)c1)NC(=O)N[C@@H](Cc1ccc(OC(C)=O)c(OC(C)=O)c1)C(=O)OC`: the t1/2 turned out to be 1.698 h.
Still for that read-out and setting: next, `COC(=O)[C@H](Cc1ccc(OC(C)=O)c(OC(C)=O)c1)NC(=O)CCCC(=O)N[C@@H](Cc1ccc(OC(C)=O)c(OC(C)=O)c1)C(=O)OC`: 1.05 h; `COC(=O)[C@H](Cc1ccc(OC(C)=O)c(OC(C)=O)c1)NC(=O)CCC(=O)N[C@@H](Cc1ccc(OC(C)=O)c(OC(C)=O)c1)C(=O)OC`: 0.232 h; `COC(=O)[C@H](Cc1ccc(OC(C)=O)c(OC(C)=O)c1)NC(=O)CCCCC(=O)N[C@@H](Cc1ccc(OC(C)=O)c(OC(C)=O)c1)C(=O)OC`: 0.13 h.
The compound `CC(C)[C@H](N)C(=O)OCCOCn1cnc2c(=O)[nH]c(N)nc21` (stereo in doubt; 167) [VALACYCLOVIR] returned a t1/2 of 7.13 h.
Same read-out and setting: next, `CC(C)C[C@H](NC(=O)[C@H](Cc1ccccc1)NC(=O)CNC(=O)CNC(=O)[C@@H](N)Cc1ccc(O)cc1)C(=O)O` [ENKEPHALIN]: 13.5 h; `CC(C)[N+](C)(CCOC(=O)C1c2ccccc2Oc2ccccc21)C(C)C` [PROPANTHELINE]: 6.17 h.

System in a further data set: not listed separately
Described as §1. It counts as ADME, cell-free.
Consider `Cc1nccn1CCOC(=O)[C@@H](C)c1ccc(CC(C)C)cc1`, for which the half-life (usually the time in which the quantity being followed falls by half) came to 2.25 h.
The same measure, in the same setting: as for `Cc1nccn1CCOC(=O)[C@@H](C)c1ccc(-c2ccccc2)c(F)c1`, the figure is 5.92 h.
On the same count and under the same terms, next, `C[C@H](C(=O)OCCn1ccnc1)c1ccc(-c2ccccc2)c(F)c1`: 7.42 h; `CC(C)Cc1ccc([C@H](C)C(=O)OCCn2ccnc2)cc1`: 16 h.
On the same count and under the same terms, next, `CCOC(=O)[C@H](C)c1ccc(CC(C)C)cc1`: 93 h; `CCOC(=O)[C@@H](C)c1ccc(CC(C)C)cc1`: 265 h; `Cc1ncc([N+](=O)[O-])n1CCOC(=O)CN1CCC(c2ccccc2)CC1`: 2.3 h.
As to `NCC(=O)N[C@@H](Cc1ccccc1)C(=O)O` (H-Gly-Phe-OH), the half-life worked out at 1.19 h.
Same read-out and setting: as for `COC(=O)[C@H](Cc1ccccc1)NC(=O)CN.Cl` (H-Gly-Phe-OMe), the figure is 0.167 h.
Still for that read-out and setting: next, `CC(C)[C@H](N)C(=O)OCCOCn1cnc2c(=O)[nH]c(N)nc21` (stereo in doubt; 160) [VALACYCLOVIR]: 5.2 h; `CC(C)C[C@@H](NC(=O)[C@H](Cc1ccccc1)NC(=O)CNC(=O)[C@@H](C)NC(=O)[C@@H](N)Cc1ccc(O)cc1)C(=O)O` [DADLE]: greater than 24 h; `O=C(CCCCCCCCC(=O)Oc1ccc2c3c1O[C@H]1[C@@H](O)CC[C@@]4(O)[C@@H](C2)N(CC2CCC2)CC[C@]314)Oc1ccc2c3c1O[C@H]1[C@@H](O)CC[C@@]4(O)[C@@H](C2)N(CC2CCC2)CC[C@]314` [DINALBUPHINE SEBACATE]: 0.09 h.
The same measure, in the same setting: next, `CCOC(=O)[C@@H](N)Cc1ccc(O)c(O)c1` [ETILEVODOPA]: 1.67 h; `COc1ccccc1OC(=O)c1ccccc1Nc1cccc(C)c1C` [MEFENAMIC ACID GUAIACOL ESTER]: 15.2 h; `CC(=O)N(c1onc(C)c1C)S(=O)(=O)c1ccc(N)cc1` [SULFISOXAZOLE ACETYL]: 0.005 h.
